Here are results for one compound from patent US10736906B2, “Method to enhance tissue regeneration” (CHILDREN'S MEDICAL CENTER CORPORATION, priority 2006, dated 2020).

The structures appear in SMILES notation.

This experiment has as its system hematopoietic stem cells (HSCs). The experiment is described as follows: HSC formation in zebrafish embryos (runx1, c-myb expression), with heat-shock inducible wnt modulators. The experiment is classed as in vivo. The protocol:
The functional consequences of the PGE2/wnt interaction in HSC formation during embryonic development were analyzed by examining the expression of the HSC markers runx1 and c-myb. Heat shock induction of a canonical wnt ligand, wnt8, at ten somites led to enhanced HSC formation at 36 hours post fertilization (hpf; 47/54). When wnt8 induction was followed by exposure to indomethacin (10 μM, 16-36 hpf) HSC formation was reduced to or below wild-type levels ( 43/46).
Inducible negative regulators of wnt activity were used in combination with dmPGE2 treatment to functionally localize the interaction between the PG and wnt pathways. Dkk1 antagonizes the wnt pathway at the level of membrane binding and the initiation of the wnt signaling cascade. Dkk induction in hs:dkk1 transgenic embryos inhibited HSC development ( 34/49). Exposure to exogenous dmPGE2 rescued the dkk1-mediated effect on HSC formation ( 28/51, 10 μM, 16-36 hpf). Axin is a central component of the β-catenin destruction complex and thus a negative regulator of the wnt signaling cascade in the cytosolic compartment. […] Similarly, a dominant-negative form of the β-catenin transcriptional co-activator TCF abolished HSC formation ( 60/62), and no rescue was affected via dmPGE2 exposure.
The wnt pathway can actively enhance HSC proliferation through signaling from the HSC niche as well as within HSCs themselves. PGE2 regulates HSC formation at the level of the vascular niche as well as within the HSCs. North et al., 2007. In order to identify transcriptional programs regulated by the wnt signaling pathway, genes involved in HSC development were analyzed by qPCR.
The functional interaction of signaling processes in the zebrafish, down stream from PG, was explored by increasing camp production using forskolin and inhibiting PKA with H89. […] Furthermore, the rescue of dkk effects by dmPGE2 was eliminated by H89.
Heat shock activation/repression of wnt signaling: Embryonic heat-shock experiments were conducted at 38° C. for a duration of 20 minutes unless otherwise noted. Genotype was determined by the presence of GFP fluorescence at three hours post heat-induction, non-fluorescence (wild-type) siblings were used as controls.
In situ hybridization: Paraformaldehyde (PFA)-fixed embryos were processed for in situ hybridization using standard zebrafish protocols such as those found on the internet at, for example, ZFIN: The Zebrafish Model Organism Database (hosted by the Univ. Oregon, Eugene, Oreg.). The following RNA probes were used to detect alterations in endodermal and liver development: GFP, LFABP, sterol carrier protein, transferrin, foxA3, insulin, trypsin, and IFABP. Changes in expression compared to wild-type controls are reported as the # altered/# scored per genotype; a minimum of three independent experiments were conducted per analysis.

As for `COc1ccc2c(c1)c(CC(=O)O)c(C)n2C(=O)c1ccc(Cl)cc1` [indomethacin], the “effects of wnt8/dkk1 induction on runx1, cmyb, flk1, ephB2 expression (qPCR)” value (indomethacin added to wnt8, dmPGE2 added to dkk1) is reported as “could be modified”. Where the note is “wnt8 heat shock at ten somites, then 10 μM, 16-36 hpf”, the “HSC formation reduced to or below wild-type levels after wnt8 induction (# altered/# scored)” value is reported as 43/46.
